Literature values as cited in US9289389B2, “Method for producing matrix-type pharmaceutical solid preparation” (OTSUKA PHARMACEUTICAL CO., LTD., priority 2007, dated 2016).
Where two headings read alike, the source gives them in different places.

Settings: for amount of water necessary to dissolve 1 g of sugar and/or sugar alcohol: water temperature not stated

Compound	amount of water necessary to dissolve 1 g (water 20° C.) [g]	amount of water necessary to dissolve 1 g of sugar and/or sugar alcohol	also measured
OC[C@H]1O[C@H](O[C@H]2[C@H](O)[C@@H](O)C(O)O[C@@H]2CO)[C@H](O)[C@@H](O)[C@@H]1O (mixture of isomers) [maltose monohydrate]	1.2	–	–
OC[C@@H](O)[C@@H](O)CO [erythritol]	–	–	amount of water necessary to dissolve 1 g (water 25° C.): 3.3 g
O=C(CO)[C@@H](O)[C@H](O)[C@H](O)CO [fructose]	–	0.3 g	–
OC[C@@H](O)[C@@H](O[C@@H]1O[C@H](CO)[C@H](O)[C@H](O)[C@H]1O)[C@H](O)[C@@H](O)CO [lactitol]	1.8	–	–
OC[C@@H](O)[C@@H](O[C@H]1O[C@H](CO)[C@@H](O)[C@H](O)[C@H]1O)[C@H](O)[C@@H](O)CO [maltitol]	–	easily soluble	–
OC[C@@H](O)[C@@H](O)[C@H](O)[C@@H](O)CO [sorbitol]	–	–	amount of water necessary to dissolve 1 g (water 25° C.): 0.5 mL (g)
OC[C@H]1O[C@@](CO)(O[C@H]2O[C@H](CO)[C@@H](O)[C@H](O)[C@H]2O)[C@@H](O)[C@@H]1O [sucrose]	–	0.5 g	–
OC[C@H]1O[C@H](O[C@H]2O[C@H](CO)[C@@H](O)[C@H](O)[C@H]2O)[C@H](O)[C@@H](O)[C@@H]1O [trehalose dihydrate]	1.2	–	–
OC[C@@H](O)[C@H](O)[C@@H](O)CO [xylitol]	1.6	–	–
